Assay results as given in the NIST ThermoML archive (doi:10.1016/j.tca.2017.12.013).
Numbers after ± are expanded uncertainties.

How the values were obtained:
[1] = Molar enthalpy of transition or fusion; conditions: DSC

- Molar enthalpy of transition or fusion ([1]; Crystal 2): 1.2 ± 0.6 kJ/mol
- Molar enthalpy of transition or fusion ([1]; Crystal 3): 4.2 ± 0.8 kJ/mol
- Triple point temperature (Crystal 2, DSC): 858 ± 1 K
- Triple point temperature (Crystal 2, Volume change): 865 ± 10 K
- Triple point temperature (Crystal 3, DSC): 451 ± 1 K
- Triple point temperature (Crystal 3, Volume change): 456 ± 5 K
SMILES: [Ag+].[Ag+].[S-2] [silver sulfide]
